In patent US12410179B2, “Modulators of TNF alpha activity and uses thereof” (RayThera, Inc., priority 2023, dated 2025):
Read-outs that look alike come from different tables or passages of the source.

Biological target: TNFα (Homo sapiens, UniProt P01375)
Assay: HEK-Blue hTNFα reporter assay
Type: cell-based
Set-up: purchased R&D biosystem (R&D Systems) 210-TA-020/CF
Conditions: HEK-Blue hTNFα reporter cells; for Emax: read-out: TNFα reporter, Emax
Text: Stimulation of HEK293 cells by TNFα leads to activation of the NF-κB pathway. The potency of compounds was examined in HEK-Blue™ hTNFα reporter cells (Invivogen, Cat #hkb-tnfdmyd). HEK-Blue™ TNFα cells were generated by stable transfection of HEK293 cell line with a SEAP reporter gene under the control of the […] minimal promoter fused to NF-κB binding sites. Stimulation of HEK-Blue™ TNFα cells with TNFα triggers the activation of the NF-κB-inducible promoter and the production of SEAP. Levels of SEAP in the supernatant can be easily determined using QUANTI-Blue™ Solution (Invivogen, cat #rep-qbs) by reading the OD at 620-655 nm.
HEK-Blue™ TNFα cells were cultured in DMEM supplemented with 10% FBS, 100p/mL penicillin, 100 μg/mL streptomycin, 100 μg/mL normocin, 1 μg/mL puromycin, and 100 μg/mL zeocin. The culture was maintained in culture incubator with 5% CO2 at 37° C. When used for assay, the cells were gently rinsed twice with pre-warmed phosphate buffered saline (PBS) and detached in presence of PBS by tapping the flask or by using a cell scraper. The cells were spun to remove PBS and resuspended in fresh, pre-warmed test medium (DMEM supplemented with 10% FBS, 100p/mL penicillin, and 100 μg/mL streptomycin). A serial dilution of work solution of tested compound was made in DMSO with 1000× of final concentration, and 40 nL of compound DMSO solution was transferred into 384-well plates (Corning 3764) by Echo, and incubated with 10 μL of recombinant hTNFα (R&D biosystem, Cat #210-TA-020/CF) for 1 h at 37° C. The compound/hTNFα mixture well received 30 μL HEK-Blue™ TNFα cell suspension at 10000 cells/well, and then incubated at 37° C. with 5% CO2 for 24 h. The final concentration of hTNFα is […]. After incubation, 5 μL of induced cell supernatant was transferred to a new 384-well plate well (Coring 3764) to mix with 45 μL of QUANTI-Blue Solution. After 1 h incubation at 37° C., the plate was read using a spectrophotometer at 620 nm.
The percentage of inhibition was calculated by the following formula: % inhibition=(positive control−Sample)/(positive control−negative control)*100 • Positive control: OD620 reading of cells with hTNFα stimulation. • Negative control: OD620 reading of cells without hTNFα stimulation. • Sample: OD620 reading of cells with compound at specific concentration and hTNFα stimulation
The % inhibition was plotted against compound concentration in logarithmic scale and the IC50 was rendered using 4-parameter nonlinear regression (GraphPad Prism).

[1] = SEAP readout, read-out: IC50 Range

Sequence of TNFα (P01375 77-233 limits assumed): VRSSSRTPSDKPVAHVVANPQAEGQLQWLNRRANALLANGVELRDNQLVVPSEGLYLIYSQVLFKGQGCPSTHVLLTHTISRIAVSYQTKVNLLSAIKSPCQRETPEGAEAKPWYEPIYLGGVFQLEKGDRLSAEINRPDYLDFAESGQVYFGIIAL

Compound	IC50 [1] [nM]	Emax [%]	IC50 (read-out: TNFα reporter, IC50) [nM]
CN1C(=O)c2cccc(OC(F)F)c2C2CC1c1nn3ccc(-c4cnc(C5(N)CCC5)nc4)cc3c12 (stereo not drawn) [Example 14, 12-(2-(1-aminocyclobutyl)pyrimidin-5-yl)-1-(difluoromethoxy)-6-methyl-6,7-dihydro-7,14-methanobenzo[c]pyrido[1′,2′:1,5]pyrazolo[4,3-f]azocin-5 (14H)-one]	< 25	–	–
CN1C(=O)c2cccc(OC(F)F)c2[C@H]2C[C@@H]1c1nn3ccc(-c4cnc([C@]5(O)C[C@@](C)(O)C5)nc4)nc3c12 [Example 16]	< 25	–	–
CN1C(=O)c2cccc(OC(F)F)c2[C@H]2C[C@@H]1c1nn3ccc(-c4cnc(C5(N)CC5)nc4)cc3c12 [Example 17]	< 25	–	–
CN1C(=O)c2cccc(OC(F)F)c2[C@H]2C[C@@H]1c1nn3ccc(-c4cnc([C@]5(O)C[C@@](C)(C#N)C5)nc4)cc3c12 [Example 18]	< 25	–	–
CN1C(=O)c2cccc(OC(F)F)c2[C@H]2C[C@@H]1c1nn3ccc(-c4cnc(C(C)(C)O)nc4)cc3c12 [Example 19]	< 25	–	–
CN1C(=O)c2cccc(OC(F)F)c2[C@H]2C[C@@H]1c1nn3ccc(-c4cnc(P(C)(C)=O)c(F)c4)cc3c12 [Example 21]	< 25	–	–
CN1C(=O)c2cccc(OC(F)F)c2[C@H]2C[C@@H]1c1nn3cc(F)c(-c4cnc(C5(N)CCC5)nc4)nc3c12 [Example 23]	< 25	–	–
CN1C(=O)c2cccc(OC(F)F)c2[C@H]2C[C@@H]1c1nn3ccc(-c4cnc([C@]5(O)C[C@@](C)(O)C5)nc4)cc3c12 [Example 24]	< 25	91	2.3
CN1C(=O)c2cccc(OC(F)F)c2[C@H]2C[C@@H]1c1nn3cc(F)c(-c4ccc(P(C)(C)=O)nc4)nc3c12 [Example 25]	< 25	–	–
CN1C(=O)c2cccc(OC(F)F)c2[C@H]2C[C@@H]1c1nn3cc(F)c(-c4cnc([C@]5(O)C[C@@](C)(O)C5)nc4)nc3c12 [Example 26]	< 25	–	–
CN1C(=O)c2cccc(OC(F)F)c2[C@H]2C[C@@H]1c1nn3cc(F)c(-c4cnc([C@]5(N)C[C@@](C)(O)C5)nc4)nc3c12 [Example 27]	< 25	–	–
CN1C(=O)c2cccc(OC(F)F)c2[C@H]2C[C@@H]1c1nn3ccc(-c4cnc([C@]5(N)C[C@@](C)(O)C5)nc4)cc3c12 [Example 28]	< 25	–	–
CN1C(=O)c2cccc(OC(F)F)c2[C@H]2C[C@@H]1c1nn3cc(F)c(-c4ccc(P(C)(C)=O)nc4)cc3c12 [Example 29]	< 25	–	–
CN1C(=O)c2cccc(OC(F)F)c2[C@H]2C[C@@H]1c1nn3cnc(-c4ccc(P(C)(C)=O)nc4)cc3c12 [Example 30]	< 25	–	–
[2H]C([2H])([2H])N1C(=O)c2cccc(OC(F)F)c2[C@H]2C[C@@H]1c1nn3ccc(-c4ccc(P(C)(C)=O)nc4)cc3c12 [Example 31]	< 25	–	–
CN1C(=O)c2cccc(OC(F)F)c2[C@H]2C[C@@H]1c1nn3cnc(-c4cnc([C@]5(O)C[C@@](C)(O)C5)nc4)cc3c12 [Example 32]	< 25	–	–
[2H]C([2H])([2H])N1C(=O)c2cccc(OC(F)F)c2[C@H]2C[C@@H]1c1nn3ccc(-c4cnc([C@]5(O)C[C@@](C)(O)C5)nc4)cc3c12 [Example 33]	< 25	–	–
CN1C(=O)c2ccc(F)c(OC(F)F)c2[C@H]2C[C@@H]1c1nn3ccc(-c4ccc(P(C)(C)=O)nc4)cc3c12 [Example 34]	< 25	–	–
CN1C(=O)c2cc(F)cc(OC(F)F)c2[C@H]2C[C@@H]1c1nn3ccc(-c4ccc(P(C)(C)=O)nc4)cc3c12 [Example 35]	< 25	–	–
CN1C(=O)c2cccc(OC(F)F)c2[C@H]2C[C@@H]1c1nn3cc(F)c(-c4cnc([C@]5(N)C[C@@](C)(O)C5)nc4)cc3c12 [Example 36]	< 25	–	–
CN1C(=O)c2cccc(OC3CC3)c2[C@H]2C[C@@H]1c1nn3ccc(-c4cnc([C@]5(O)C[C@@](C)(O)C5)nc4)cc3c12 [Example 37]	< 25	–	–
C[C@]1(O)C[C@](O)(c2ncc(-c3ccn4nc5c(c4c3)[C@@H]3C[C@H]5NC(=O)c4cccc(OC(F)F)c43)cn2)C1 [Example 38]	< 25	–	–
CN1C(=O)c2cccc(OC(F)F)c2[C@H]2C[C@@H]1c1nn3cc(F)c(-c4cnc(P(C)(C)=O)c(F)c4)cc3c12 [Example 39]	< 25	–	–

Compound	IC50 [1] [nM]	Emax [%]	IC50 (read-out: TNFα reporter, IC50) [nM]
CN1C(=O)c2cccc(OC(F)F)c2[C@H]2C[C@@H]1c1nn3ccc(-c4cnc([C@]5(N)C[C@@](C)(O)C5)c(F)c4)cc3c12 [Example 40]	< 25	–	–
CN1C(=O)c2cccc(OC(F)F)c2[C@H]2C[C@@H]1c1nn3cc(F)c(-c4cnc(C5(N)CCC5)nc4)cc3c12 [Example 41]	< 25	–	–
CN1C(=O)c2cccc(OC(F)F)c2[C@H]2C[C@@H]1c1nn3ccc(-c4cnc([C@]5(O)C[C@@](C)(O)C5)cn4)cc3c12 [Example 42]	< 25	–	–
CN1C(=O)c2cccc(OC(F)F)c2[C@H]2C[C@@H]1c1nn3cc(F)c(-c4cnc([C@]5(O)C[C@@](C)(O)C5)cn4)cc3c12 [Example 43]	< 25	–	–
CN1C(=O)c2cccc(OC(F)F)c2[C@H]2C[C@@H]1c1nn3cnc(-c4cnc([C@]5(O)C[C@@](C)(C#N)C5)nc4)cc3c12 [Example 45]	< 25	–	–
CN1C(=O)c2cccc(OC(F)F)c2[C@H]2C[C@@H]1c1nn3cnc(-c4cnc([C@]5(N)C[C@@](C)(O)C5)nc4)cc3c12 [Example 46]	< 25	–	–
CN1C(=O)c2cccc(OC(F)F)c2[C@H]2C[C@@H]1c1nn3cnc(-c4cnc([C@]5(N)C[C@@](C)(O)C5)c(F)c4)cc3c12 [Example 47]	< 25	94	3.6
CN1C(=O)c2cccc(OC(F)F)c2[C@H]2C[C@@H]1c1nn3cnc(-c4cnc(C5(N)CCC5)nc4)cc3c12 [Example 48]	< 25	–	–
CN1C(=O)c2cccc(OC(F)F)c2[C@H]2C[C@@H]1c1nn3ccc(-c4cnc(C5(N)COC5)nc4)cc3c12 [Example 49]	< 25	–	–
CN1C(=O)c2cccc(OC(F)F)c2[C@H]2C[C@@H]1c1nn3cc(F)c(-c4cnc([C@]5(N)C[C@@](C)(O)C5)c(F)c4)nc3c12 [Example 50]	< 25	–	–
CN1C(=O)c2cccc(OC(F)F)c2[C@H]2C[C@@H]1c1nn3cc(F)c(-c4cnc([C@]5(N)C[C@@](C)(C#N)C5)nc4)nc3c12 [Example 51]	< 25	–	–
[2H]C([2H])([2H])N1C(=O)c2cccc(OC(F)F)c2[C@H]2C[C@@H]1c1nn3ccc(-c4cnc(C5(N)CCC5)nc4)nc3c12 [Example 52]	< 25	–	–
CN1C(=O)c2cccc(C#N)c2[C@H]2C[C@@H]1c1nn3ccc(-c4cnc(C5(N)CCC5)nc4)cc3c12 [Example 54]	< 25	–	–
[2H]C([2H])([2H])N1C(=O)c2cccc(OC(F)F)c2[C@H]2C[C@@H]1c1nn3ccc(-c4cnc([C@]5(N)C[C@@](C)(C#N)C5)nc4)cc3c12 [Example 55]	< 25	–	–
[2H]C([2H])([2H])N1C(=O)c2cccc(OC(F)F)c2[C@H]2C[C@@H]1c1nn3ccc(-c4cnc([C@]5(N)C[C@@](C)(C#N)C5)nc4)nc3c12 [Example 56]	< 25	–	–
[2H]C([2H])([2H])N1C(=O)c2cccc(OC(F)F)c2[C@H]2C[C@@H]1c1nn3cc(F)c(-c4cnc([C@]5(N)C[C@@](C)(O)C5)nc4)nc3c12 [Example 57]	< 25	–	–
C[C@]1(C#N)C[C@](N)(c2ncc(-c3cc4c5c(nn4cc3F)[C@H]3C[C@@H]5c4c(OC(F)F)cccc4C(=O)N3)cc2F)C1 [Example 58]	< 25	–	–
CN1C(=O)c2cccc(OC(F)F)c2[C@H]2C[C@@H]1c1nn3cnc(-c4cnc([C@]5(N)C[C@@](C)(C#N)C5)c(F)c4)cc3c12 [Example 59]	< 25	98	4.1
C[C@]1(C#N)C[C@](N)(c2ncc(-c3ccn4nc5c(c4n3)[C@@H]3C[C@H]5NC(=O)c4cccc(OC(F)F)c43)cn2)C1 [Example 60]	< 25	–	–
[2H]C([2H])([2H])N1C(=O)c2cccc(OC(F)F)c2[C@H]2C[C@@H]1c1nn3cnc(-c4cnc([C@]5(N)C[C@@](C)(C#N)C5)nc4)cc3c12 [Example 61]	< 25	–	–
CN1C(=O)c2cccc(OC(F)F)c2[C@H]2C[C@@H]1c1nn3ccc(-c4cnc([C@]5(O)CCOC5)nc4)cc3c12 [Example 63]	< 25	–	–
CN1C(=O)c2cccc(OC(F)F)c2[C@H]2C[C@@H]1c1nn3ccc(-c4cnc([C@@]5(O)CCOC5)nc4)cc3c12 [Example 64]	< 25	–	–
